Laboratory results published in patent US11472857B2 (Purdue Research Foundation, priority 2015, dated 2022).
“Also recorded” adds a separate entry of the source.

System: male Wistar rats
Experiment: In vivo blood glucose elevation after s.c. injection
Parameters: species or system rat
Procedure: Rats were catheterized to enable collection of blood samples at various time points. The total blood glucose level was measured by withdrawing blood at regular intervals (5-120 min) and tested using [sequence] LITE (glucose test meters, Abbott, Chicago, Ill.).

phospho-Ser16-glucagon
Maximum elevation in blood glucose (2.8 nmol/kg s.c.): ~10 mg/dL | Blood glucose elevation compared with native glucagon (7.1 nmol/kg s.c.): activity comparable to that of native glucagon | Maximum increase in blood glucose (7.1 nmol/kg s.c.): ~50 mg/dL | Time of peak blood glucose (7.1 nmol/kg s.c.): 20 min

phospho-Thr7-glucagon
Blood glucose elevation compared with native glucagon (7.1 nmol/kg s.c.): slower response and a somewhat lower blood glucose peak; also recorded: somewhat slower increase

phospho-Tyr13-glucagon
Blood glucose elevation compared with native glucagon (7.1 nmol/kg s.c.): response similar to that of phospho-Thr5-glucagon and phospho-Ser16-glucagon; also recorded: comparable to native glucagon
